Like-named read-outs stand apart in the source and are kept apart here. Where no end group is shown, it is not given here.
Experiments:
Alternaria helianthi = conditions: Table 1, no added Ca2+
Phytophthora cryptogea = test: Antifungal growth inhibition bioassay (96-well, A600); type: cell-based
[1] = tested on: Clavibacter michiganensis; test: Antibacterial growth inhibition bioassay (96-well, A600); type: cell-based
Saccharomyces cerevisiae = test: Antifungal growth inhibition bioassay (96-well, A600); type: cell-based
Cercospora nicotianae = test: Antifungal growth inhibition bioassay (96-well, A600); type: cell-based
Chalara elegans = test: as above; type: cell-based
fungi and bacteria = test: Antifungal and antibacterial activity bioassays, results in words; type: cell-based; conditions: for antimicrobial / antifungal activity (in words): bioassays as in Example 2
Ralstonia solanacearum = type: cell-based
[2] = tested on: Pseudomonas syringae tabaci; test: Antibacterial growth inhibition bioassay (96-well, A600); type: cell-based
[3] = tested on: Phytophthora parasitica nicotiana; test: Antifungal growth inhibition bioassay (96-well, A600); type: cell-based
Ceratocystis paradoxa = test: as above; type: cell-based
Escherichia coli = test: Antibacterial growth inhibition bioassay (96-well, A600); type: cell-based
Candida albicans = test: Antifungal growth inhibition bioassay (96-well, A600); type: cell-based
[4] = Table 1, 1 mM Ca2+ in test medium

MiAMP2c: 47-amino-acid antimicrobial protein purified from Macadamia integrifolia seeds; amino acids 118 to 164 of clone 3 (SEQ ID NO: 5) (RKQQKRYEEQQREDEEKYEERMKEGDNKRDPQQREYEDCRRHCEQQE; Partial mature peptide)
IC50 (concentration at which 50% inhibition of growth was observed) (Alternaria helianthi): 5 to 10 µg/mL | IC50 + Ca^2+ (Phytophthora cryptogea; [4]): 10 to 25 µg/mL | IC50 (concentration at which 50% inhibition of growth was observed) (Phytophthora cryptogea; Table 1, no added Ca2+): 5 to 10 µg/mL | IC50 + Ca^2+ [1, 4]: >50 µg/mL | IC50 (concentration at which 50% inhibition of growth was observed) ([1]; Table 1, no added Ca2+): 50 µg/mL | IC50 + Ca^2+ (Saccharomyces cerevisiae; [4]): >50 µg/mL | IC50 (concentration at which 50% inhibition of growth was observed) (Saccharomyces cerevisiae; Table 1, no added Ca2+): 20 to 50 µg/mL | IC50 + Ca^2+ (Verticillium dahliae; Table 1, Verticillium dahliae, 1 mM Ca2+ in test medium): >50 µg/mL | IC50 (concentration at which 50% inhibition of growth was observed) (Verticillium dahliae; Table 1, Verticillium dahliae, no added Ca2+): 5 to 10 µg/mL | IC50 values, Vd (Verticillium dahliae; Table 2, Verticillium dahliae, media A without added Ca2+): 5 to 10 µg/mL | IC50 + Ca^2+ (Sclerotinia sclerotiorum; Table 1, Sclerotinia sclerotiorum, 1 mM Ca2+ in test medium): >50 µg/mL | IC50 (concentration at which 50% inhibition of growth was observed) (Sclerotinia sclerotiorum; Table 1, Sclerotinia sclerotiorum, no added Ca2+): 20 to 50 µg/mL | IC50 values, Ss (Sclerotinia sclerotiorum; Table 2, Sclerotinia sclerotiorum, media A without added Ca2+): 20 to 50 µg/mL | IC50 + Ca^2+ (Cercospora nicotianae; [4]): 5 to 10 µg/mL | IC50 (concentration at which 50% inhibition of growth was observed) (Cercospora nicotianae; Table 1, no added Ca2+): 5 to 10 µg/mL | IC50 + Ca^2+ (Chalara elegans; [4]): 10 to 20 µg/mL | IC50 (concentration at which 50% inhibition of growth was observed) (Chalara elegans; Table 1, no added Ca2+): 2 to 5 µg/mL | effect of Ca2+ on inhibitory activity (in words) (fungi and bacteria; 1 mM Ca2+ in the test medium): greatly reduced (although not eliminated) | IC50 + Ca^2+ (Ralstonia solanacearum; [4]): >50 µg/mL | IC50 (concentration at which 50% inhibition of growth was observed) (Ralstonia solanacearum; Table 1, no added Ca2+): >50 µg/mL | IC50 + Ca^2+ [2, 4]: >50 µg/mL | IC50 (concentration at which 50% inhibition of growth was observed) ([2]; Table 1, no added Ca2+): >50 µg/mL | IC50 + Ca^2+ [3, 4]: >50 µg/mL | IC50 (concentration at which 50% inhibition of growth was observed) ([3]; Table 1, no added Ca2+): 10 to 20 µg/mL | IC50 + Ca^2+ (Ceratocystis paradoxa; [4]): >50 µg/mL | IC50 (concentration at which 50% inhibition of growth was observed) (Ceratocystis paradoxa; Table 1, no added Ca2+): 20 to 50 µg/mL | IC50 values, Cp (Ceratocystis paradoxa; Table 2, media A without added Ca2+): 20 to 50 µg/mL | IC50 + Ca^2+ (Escherichia coli; [4]): >50 µg/mL | IC50 (concentration at which 50% inhibition of growth was observed) (Escherichia coli; Table 1, no added Ca2+): >50 µg/mL | IC50 + Ca^2+ (Candida albicans; [4]): >50 µg/mL | IC50 (concentration at which 50% inhibition of growth was observed) (Candida albicans; Table 1, no added Ca2+): >50 µg/mL | IC50 + Ca^2+ (Fusarium oxysporum; Table 1, Fusarium oxysporum, 1 mM Ca2+ in test medium): 20 to 50 µg/mL | IC50 values, Foc (Fusarium oxysporum; Table 2, Fusarium oxysporum, media A without added Ca2+): 10 µg/mL

PRHMQIAQQRAERRAEKEKRKQQKR [MiAMP2c pep2]
IC50 values, Vd (Verticillium dahliae): 10 to 20 µg/mL | IC50 values, Ss (Sclerotinia sclerotiorum): 50 µg/mL | antimicrobial / antifungal activity (in words) (fungi and bacteria): inhibitory activity against a variety of fungi | IC50 values, Lm (Leptosphaeria maculans): 10 to 20 µg/mL | IC50 values, Foc (Fusarium oxysporum): 10 to 20 µg/mL

RQRDPQQQAEQAQKRAQRRETE [MiAMP2c pep1]
IC50 values, Ss (Sclerotinia sclerotiorum): >50 µg/mL | antimicrobial / antifungal activity (in words) (fungi and bacteria): little or no activity

Source: patent US7067624B2, “Antimicrobial proteins” (Commonwealth Scientific and Industrial Research Organisation, priority 1996, dated 2006)
